Measured values taken from ChEMBL document CHEMBL2413067, “Investigation into the functional impact of the vancomycin C-ring aryl chloride” (2013).
≈ marks a conversion by molar mass, not a printed value.

Legend:
[1] = Binding affinity to N,N'-Ac2-L-Lys-D-Ala-D-Ala model of cell wall ligand by UV-difference assay
[2] = test system: Staphylococcus aureus; assay: Antimicrobial activity against vancomycin-sensitive Staphylococcus aureus ATCC 25923 after 24 hrs; format: functional; conditions: ATCC 25923, 24 h
[3] = Binding affinity to N,N'-Ac2-L-Lys-D-Ala-Gly model of cell wall ligand by UV-difference assay
[4] = Binding affinity to N,N'-Ac2-L-Lys-D-Ala-D-Phe model of cell wall ligand by UV-difference assay
[5] = Binding affinity to N,N'-Ac2-L-Lys-D-Ala-D-Ser model of cell wall ligand by UV-difference assay

CN[C@H](CC(C)C)C(=O)N[C@H]1C(=O)N[C@@H](CC(N)=O)C(=O)N[C@H]2C(=O)N[C@H]3C(=O)N[C@H](C(=O)N[C@H](C(=O)O)c4cc(O)cc(O)c4-c4cc3ccc4O)[C@H](O)c3ccc(c(Cl)c3)Oc3cc2cc(c3O[C@@H]2O[C@H](CO)[C@@H](O)[C@H](O)[C@H]2O[C@H]2C[C@](C)(N)[C@H](O)[C@H](C)O2)Oc2ccc(cc2Cl)[C@H]1O [VANCOMYCIN]
Ka [1]: 1.8 ×10⁵ /M | MIC [2]: 1.25 µg/mL (≈ 0.863 µM)

CN[C@H](CC(C)C)C(=O)N[C@H]1C(=O)N[C@@H](CC(N)=O)C(=O)N[C@H]2C(=O)N[C@H]3C(=O)N[C@H](C(=O)N[C@H](C(=O)O)c4cc(O)cc(O)c4-c4cc3ccc4O)[C@H](O)c3ccc(cc3)Oc3cc2cc(c3O)Oc2ccc(cc2)[C@H]1O
Ka [1]: 0.18 ×10⁵ /M | MIC [2]: 20 µg/mL (≈ 18.6 µM)

CN[C@H](CC(C)C)C(=O)N[C@H]1C(=O)N[C@@H](CC(N)=O)C(=O)N[C@H]2C(=O)N[C@H]3C(=O)N[C@H](C(=O)N[C@H](C(=O)O)c4cc(O)cc(O)c4-c4cc3ccc4O)[C@H](O)c3ccc(c(Cl)c3)Oc3cc2cc(c3O)Oc2ccc(cc2Cl)[C@H]1O [VANCOMYCIN AGLYCON]
Ka [3]: 1 ×10⁴ /M | Ka [4]: 9.1 ×10² /M | Ka [1]: 1.4 ×10⁵ /M | Ka [5]: 3.3 ×10³ /M | MIC [2]: 1.25 µg/mL (≈ 1.09 µM)

CN[C@H](CC(C)C)C(=O)N[C@H]1C(=O)N[C@@H](CC(N)=O)C(=O)N[C@H]2C(=O)N[C@H]3C(=O)N[C@H](C(=O)N[C@H](C(=O)O)c4cc(O)cc(O)c4-c4cc3ccc4O)[C@H](O)c3ccc(cc3)Oc3cc2cc(c3O)Oc2ccc(cc2Cl)[C@H]1O
Ka [3]: 0.49 ×10⁴ /M | Ka [4]: 9 ×10² /M | Ka [1]: 0.38 ×10⁵ /M | Ka [5]: 4 ×10³ /M | MIC [2]: 10 µg/mL (≈ 9.01 µM)
